Measured values published in BigSolDB 2.1.

Oc1ccc(/C=C/c2cc(O)cc(O)c2)cc1
solubility (mole fraction)
Conditions	in dichloromethane	in ethanol	in methanol	in n-butanol	in n-propanol
283.15 K	1.23e-06	0.0212	0.0174	0.0103	0.0134
288.15 K	1.57e-06	0.0224	0.0182	0.0112	0.0145
293.15 K	2e-06	0.0236	0.019	0.0121	0.0156
298.15 K	2.53e-06	0.0248	0.0198	0.013	0.0168
303.15 K	3.13e-06	0.0261	0.0206	0.014	0.018
